# In patent US20230285402A1, “Compositions and Methods of Modulating Short-Chain Dehydrogenase Activity” (BOARD OF REGENTS OF THE UNIVERSITY OF TEXAS SYSTEM, priority 2013, published 2023):
# Tests used:
# [1] = test system: 15-PGDH mRNA; assay: 15-PGDH mRNA by real-time PCR in colon cancer cell lines; assay type: cell-based
# Description: In these studies parental cell lines (not containing the 15-PGDH-luciferase reporter) are employed.
# [2] = test system: C57BL/6J mice; assay: Liver regeneration after partial hepatectomy, C57BL/6J mice, SW033291 5 mg/kg IP; assay type: in vivo; settings: 5 mg/kg IP bid; one mouse each
# [3] = test system: bone marrow; assay: Hematopoietic colonies from wild-type mouse bone marrow treated ex vivo; assay type: cell-based; settings: 0.5 μM, ex vivo on ice 2 hours
# Description: Treated marrow is again then plated into methylcellulose for counting of hematopoietic colonies.
# [4] = test system: NSG mice; assay: Homing of CFSE labeled human umbilical cord blood buffy coat cells in NSG mice; settings: in vivo
# Method: FIG. 93 illustrates a schema of an experiment in which immune deficient NSG mice are lethally irradiated (IR) and 12 hours later receive a transplant with CFSE dye labeled buffy coat cells from human umbilical cord blood (UCB), and number of transplanted cells that home and survive in the bone marrow of the recipient mice are then determined by FACS at 16 hours post-transplant. In different arms of the experiment mice are treated with vehicle or with SW033291. Drugs are administered following radiation, following the transplant, and again at 8 hours after the transplant.
# [5] = test system: C57BL/6J mice; assay: Survival of 11Gy irradiated C57BL/6J mice given marrow allograft, SW033291 5 mg/kg IP bid for 21 days, 3 mice per condition; assay type: in vivo, mouse
# Description: The experimental design is depicted in FIG. 50.
# Under the conditions of the mouse colony during this study, control mice receiving 100,000-500,000 cells are all dead between days 4-13 of study. […] Such activity would be of particular utility in settings, such as transplantation with umbilical cord stem cells, in which donor cell numbers are limited.
# [6] = test system: C57BL/6J mice; assay: Competitive transplant of marrow from treated CD45.2 donor mice; assay type: in vivo, mouse; settings: donor 5 mg/kg IP daily for 3 doses; weeks 12 and 16
# Method: On day 3 mice were sacrificed, marrow flushed and mixed at a 1:1 ratio with vehicle treated CD45.1 marrow. 2 million whole BM cells were injected into the tail vein of lethally irradiated CD45.1 mice and percent chimerism measured via flow cytometry at weeks 8, 12, 16.
# [7] = test system: FVB male mice; assay: Dextran sodium sulfate (DSS) induced colitis, FVB male mice, SW033291 5 mg/kg IP twice daily; assay type: in vivo, mouse
# [8] = test system: mice; assay: Bone marrow transplant after 11Gy, SW033291 5 mg/kg IP twice daily: survival and blood/marrow counts; assay type: in vivo, mouse
# [9] = 21 day toxicity study in FVB mice, daily weights; assay type: in vivo, mouse; settings: 5 mg/kg IP twice daily for 21 days
# [10] = test system: C57BL/6J female mice; assay: Survival after acetaminophen (Tylenol) 600 mg/kg IP (LD50), C57BL/6J female mice, SW033291 5 mg/kg IP; assay type: in vivo, mouse; settings: for number of mice surviving: first dose immediately after Tylenol
# [11] = test system: 15-PGDH-luciferase fusion reporter in V9m, LS174T and V503 cells; assay: 15-PGDH-luciferase fusion reporter induction in colon cancer cell lines; assay type: cell-based; settings: V9m, LS174T, V503
# [12] = day 5 after transplant, 500,000 donor cells
structure (smiles),measurement,setting,value
"CCCC[S+]([O-])c1sc2nc(-c3cccs3)cc(-c3ccccc3)c2c1N (stereo not drawn) [SW033291, 2-(butylsulfinyl)-4-phenyl-6-(thiophen-2-yl)thieno[2,3-b]pyridin-3-amine]",15-PGDH mRNA,[1]; V503 cells,slight increase in 15-PGDH mRNA
same,15-PGDH mRNA levels,[1]; treated colon cancer cell lines,do not in general alter 15-PGDH mRNA levels
same,serum ALT values vs control,[2],lower
same,increase in number of bone marrow derived colonies,[3],approximately 50%
same,increase of homed human cells in recipient mouse bone marrow,[4],~2 fold
same,Mouse survival (number surviving),"[5]; Day 0, 1 × 10^5 cells",3
same,Mouse survival (number surviving),"[5]; Day 0, 2 × 10^5 cells",3
same,Mouse survival (number surviving),"[5]; Day 0, 5 × 10^5 cells",3
same,Mouse survival (number surviving),"[5]; Day 1, 1 × 10^5 cells",3
same,Mouse survival (number surviving),"[5]; Day 1, 2 × 10^5 cells",3
same,Mouse survival (number surviving),"[5]; Day 1, 5 × 10^5 cells",3
same,Mouse survival (number surviving),"[5]; Day 2, 1 × 10^5 cells",3
same,Mouse survival (number surviving),"[5]; Day 2, 2 × 10^5 cells",3
same,Mouse survival (number surviving),"[5]; Day 2, 5 × 10^5 cells",3
same,Mouse survival (number surviving),"[5]; Day 3, 1 × 10^5 cells",3
same,Mouse survival (number surviving),"[5]; Day 3, 2 × 10^5 cells",3
same,Mouse survival (number surviving),"[5]; Day 3, 5 × 10^5 cells",3
same,Mouse survival (number surviving),"[5]; Day 4, 1 × 10^5 cells",2
same,Mouse survival (number surviving),"[5]; Day 4, 2 × 10^5 cells",3
same,Mouse survival (number surviving),"[5]; Day 4, 5 × 10^5 cells",3
same,Mouse survival (number surviving),"[5]; Day 5, 1 × 10^5 cells",1
same,Mouse survival (number surviving),"[5]; Day 5, 2 × 10^5 cells",3
same,Mouse survival (number surviving),"[5]; Day 5, 5 × 10^5 cells",3
same,Mouse survival (number surviving),"[5]; Day 6, 1 × 10^5 cells",0
same,Mouse survival (number surviving),"[5]; Day 6, 2 × 10^5 cells",2
same,Mouse survival (number surviving),"[5]; Day 6, 5 × 10^5 cells",3
same,Mouse survival (number surviving),"[5]; Day 7, 2 × 10^5 cells",2
same,Mouse survival (number surviving),"[5]; Day 7, 5 × 10^5 cells",3
same,Mouse survival (number surviving),"[5]; Day 8, 2 × 10^5 cells",2
same,Mouse survival (number surviving),"[5]; Day 8, 5 × 10^5 cells",2
same,Mouse survival (number surviving),"[5]; Day 9, 2 × 10^5 cells",2
same,Mouse survival (number surviving),"[5]; Day 9, 5 × 10^5 cells",2
same,Mouse survival (number surviving),"[5]; Day 10, 2 × 10^5 cells",2
same,Mouse survival (number surviving),"[5]; Day 10, 5 × 10^5 cells",2
same,Mouse survival (number surviving),"[5]; Day 11, 2 × 10^5 cells",2
same,Mouse survival (number surviving),"[5]; Day 11, 5 × 10^5 cells",2
same,Mouse survival (number surviving),"[5]; Day 12, 2 × 10^5 cells",1
same,Mouse survival (number surviving),"[5]; Day 12, 5 × 10^5 cells",2
same,Mouse survival (number surviving),"[5]; Day 13, 2 × 10^5 cells",0
same,Mouse survival (number surviving),"[5]; Day 13, 5 × 10^5 cells",2
same,percent blood chimerism of CD45.2 marked cells,[6],significantly increased
same,change from baseline weight vs control,[7]; 22 days of study,greater weight at all time points
same,Colon length,[7]; Baseline,8.4 ± 0.2 cm
same,Wt @ sacrifice,[7]; Baseline,25.9 ± 0.7 gm
same,Colon length,[7]; Day 8,6.6 ± 0.1 cm
same,Wt @ sacrifice,[7]; Day 8,26.4 ± 0.5 gm
same,Colon length,[7]; Day 15,7.5 ± 0.1 cm
same,Wt @ sacrifice,[7]; Day 15,25.2 ± 0.9 gm
same,Colon length,[7]; Day 22,8.6 ± 0.3 cm
same,Wt @ sacrifice,[7]; Day 22,28.2 ± 0.5 gm
same,share of ulcer formation prevented,"[7]; colonoscopy days 8, 11 and 15",two-thirds
same,reduction of length of ulcerated mucosa vs control,[7]; day 15,61%
same,average length of ulcerated mucosa,"[7]; day 15, N=6 mice, control 4.48",1.74 mm per colon section
same,MEICS score vs control,"[7]; days 8, 11 and 15",significantly less colitis activity
same,median survival vs control,"[8]; 100,000 donor cells",approximate doubling of median survival
same,survival at 30 days,"[8]; 200,000 donor cells","all mice receiving 200,000 donor cells plus SW033291 survived"
same,survival at 30 days,"[8]; 500,000 donor cells",all survived
same,total platelet count vs control,[8]; [12],significantly higher total platelet count
same,total white count vs control,[8]; [12],significantly higher total white count
same,platelet count,"[8]; day 8 after transplant, control 39,500","77,000"
same,total white counts vs control,[8]; day 12 after transplant,significantly greater total white counts
same,hemoglobin level,"[8]; day 12 after transplant, control 8.3",11.58
same,neutrophil count,"[8]; day 12 after transplant, control 125",332
same,lymphocyte count vs control,[8]; day 18 after transplant,significantly higher
same,platelet counts vs control,[8]; day 18 after transplant,significantly higher platelet counts
same,total white count vs control,[8]; day 18 after transplant,significantly higher total white count
same,neutrophil count,"[8]; day 18 after transplant, control 365",835
same,mean SKL marked bone marrow cells,"[8]; day 18 after transplant, control 967",4127
same,mouse weight,[9],no evidence for SW033291 reducing mouse weight
same,number of mice surviving,"[10]; 0 hrs, 1 dose/daily, cohort of 6",6
same,number of mice surviving,"[10]; 0 hrs, 2 dose/daily, cohort of 6",6
same,Survival (number of mice),"[10]; 0 hrs, bid from 3 hours prior to acetaminophen, 6 doses, cohort of 6",6
same,Survival (number of mice),"[10]; 0 hrs, bid from 48 hours prior to acetaminophen, 9 doses, cohort of 12",12
same,number of mice surviving,"[10]; 16 hr, 1 dose/daily, cohort of 6",6
same,number of mice surviving,"[10]; 16 hr, 2 dose/daily, cohort of 6",6
same,Survival (number of mice),"[10]; 16 hr, bid from 3 hours prior to acetaminophen, 6 doses, cohort of 6",6
same,Survival (number of mice),"[10]; 16 hr, bid from 48 hours prior to acetaminophen, 9 doses, cohort of 12",12
same,number of mice surviving,"[10]; 24 hrs, 1 dose/daily, cohort of 6",6
same,number of mice surviving,"[10]; 24 hrs, 2 dose/daily, cohort of 6",6
same,Survival (number of mice),"[10]; 24 hrs, bid from 3 hours prior to acetaminophen, 6 doses, cohort of 6",5
same,Survival (number of mice),"[10]; 24 hrs, bid from 48 hours prior to acetaminophen, 9 doses, cohort of 12",12
same,Survival (number of mice),"[10]; 40 hrs, bid from 48 hours prior to acetaminophen, 9 doses, cohort of 12",11
same,number of mice surviving,"[10]; 48 hrs, 2 dose/daily, cohort of 6",3
same,Survival (number of mice),"[10]; 48 hrs, bid from 3 hours prior to acetaminophen, 6 doses, cohort of 6",3
same,Survival (number of mice),"[10]; 48 hrs, bid from 48 hours prior to acetaminophen, 9 doses, cohort of 12",10
same,number of mice surviving,"[10]; 64 hrs, 2 dose/daily, cohort of 6",3
same,Survival (number of mice),"[10]; 64 hrs, bid from 3 hours prior to acetaminophen, 6 doses, cohort of 6",3
same,Survival (number of mice),"[10]; 64 hrs, bid from 48 hours prior to acetaminophen, 9 doses, cohort of 12",10
same,number of mice surviving,"[10]; 72 hrs, 2 dose/daily, cohort of 6",3
same,Survival (number of mice),"[10]; 72 hrs, bid from 3 hours prior to acetaminophen, 6 doses, cohort of 6",3
same,Survival (number of mice),"[10]; 72 hrs, bid from 48 hours prior to acetaminophen, 9 doses, cohort of 12",10
same,number of mice surviving,"[10]; 88 hr, 2 dose/daily, cohort of 6",3
same,Survival (number of mice),"[10]; 88 hr, bid from 3 hours prior to acetaminophen, 6 doses, cohort of 6",3
same,Survival (number of mice),"[10]; 88 hr, bid from 48 hours prior to acetaminophen, 9 doses, cohort of 12",10
same,number of mice surviving,"[10]; 96 hr, 2 dose/daily, cohort of 6",3
same,Survival (number of mice),"[10]; 96 hr, bid from 3 hours prior to acetaminophen, 6 doses, cohort of 6",3
same,Survival (number of mice),"[10]; 96 hr, bid from 48 hours prior to acetaminophen, 9 doses, cohort of 12",10
same,number of mice surviving,"[10]; 112 hr, 2 dose/daily, cohort of 6",3
same,Survival (number of mice),"[10]; 112 hr, bid from 3 hours prior to acetaminophen, 6 doses, cohort of 6",3
same,Survival (number of mice),"[10]; 112 hr, bid from 48 hours prior to acetaminophen, 9 doses, cohort of 12",10
same,number of mice surviving,"[10]; 120 hr, 2 dose/daily, cohort of 6",3
same,Survival (number of mice),"[10]; 120 hr, bid from 3 hours prior to acetaminophen, 6 doses, cohort of 6",3
same,Survival (number of mice),"[10]; 120 hr, bid from 48 hours prior to acetaminophen, 9 doses, cohort of 12",10
same,survival vs control mice,"[10]; dosing begun immediately following acetaminophen, once or twice daily, 0-120 hours",No difference
same,"luciferase activity, in words",[11],increase luciferase activity
